The source of these data is patent publication US20120122848A1, “(+)-3-HYDROXYMORPHINAN DERIVATIVES AS NEUROPROTECTANTS” (GREEN CROSS CORPORATION, priority 2009, published 2012).

Series [1] is described as follows: Cell cytotoxicity test: protection of HT22 cells against glutamate toxicity (EC50) and cytotoxicity of the compounds (CC50), MTT. To be noted: mouse, HT22 cells (mouse hippocampal neuron). Type of series: cell-based, mouse. How it is done: (§1) HT22 cells (mouse hippocampal neuron, Salk Institute and KRIBB) were plated in a 96-well plate at a density of 3×10^3 cells/well for 16 hrs before treatment. The cells were treated with five millimolar glutamate and various concentrations of the inventive compounds and incubated for 24 hrs in a growth media (DMEM with 10% FBS and 1% penicillin streptomycin). Then, the cells were treated with 3-(4,5-dimethylthiazol-2-yl)-2,5-diphenyltetrazolium bromide (MTT, Sigma®) for 4 hrs and absorbance of each well was measured with a plate reader at a wavelength of 450 nm. [Da-Qing, et. al., Anti-oxidant and anti-inflammatory activities of macelignan in murine hippocampal cell line and primary culture of rat microglia cells, BBRC, 2005, 331, 1264-1269].
(§2) In Table 1, EC50 is neuroprotective effect against glutamate toxicity and CC50 is cytotoxicity of the compounds. The EC50 values were statistically analyzed using Prizm® (GraphPad Software Inc., San Diego, Calif., USA).

Series [2] relates to HT22 cells (mouse hippocampal neuron). The series is described as above. Type of series: cell-based. As to conditions: Mus musculus, HT-22, five millimolar glutamate, 24 hrs, read-out: EC50 (neuroprotective effect against glutamate toxicity). How it is done:
as §1, §2

The structures appear in SMILES notation. Counter-ions that a name gives are not always drawn.

In general, CC50 refers to the concentration that lowers cell viability or growth by half. Read a high CC50 as lower toxicity to the cells. For orientation: EC50 means the concentration needed to bring the measured effect to its halfway point.

Compound `Cc1ccc(Nc2cc3c(cc2O)[C@]24CCCC[C@@H]2[C@H](C3)NCC4)cc1` [Example 28, (+)-3-Hydroxy-2-(4-methylphenylamino)morphinan TFA salt] displayed a CC50 at 24 h in series [1] of 1.84 µM. In addition, the half-maximal effective concentration (EC50) in series [2] was 0.0325 µM.

In turn, `CCS(=O)(=O)Nc1ccccc1Nc1cc2c(cc1O)[C@]13CCCC[C@@H]1[C@H](C2)NCC3` [Example 111, (+)-2-(2-(Ethanesulfonamido)phenylamino)-3-hydroxymorphinan TFA salt] gave a CC50 at 24 h in series [1] of 36.5 µM. Further, the 50% effective concentration (EC50) in series [2] worked out at 0.475 µM.

In turn, `CC(Nc1cc2c(cc1O)[C@]13CCCC[C@@H]1[C@H](C2)NCC3)c1ccccc1` (stereo partly drawn) [Example 91, (+)-3-Hydroxy-2-(1-phenylethylamino)morphinan TFA salt] yielded a 50% cytotoxic concentration (CC50) at 24 h in series [1] of 15 µM. In addition, the concentration for a half-maximal effect (EC50) in series [2] is 0.0813 µM.

Regarding `Oc1ccc2c(c1Br)[C@]13CCCC[C@@H]1[C@H](C2)NCC3` [Example 7, (+)-4-Bromo-3-hydroxymorphinan TFA salt], the EC50 in series [2] was determined as 12.5 µM.

In series [1], `CCNc1ccccc1Nc1cc2c(cc1O)[C@]13CCCC[C@@H]1[C@H](C2)NCC3` [Example 130, (+)-2-(2-(Ethylamino)phenylamino)-3-hydroxymorphinan TFA salt] gave a CC50 at 24 h of 1.6 µM. Moreover, in series [2], the 50% effective concentration (EC50) worked out at 0.0112 µM.

Consider `Oc1cc2c(cc1-c1ccccc1)C[C@@H]1NCC[C@]23CCCC[C@H]13` [Example 80, (+)-3-Hydroxy-2-phenylmorphinan TFA salt], for which the 50% effective concentration (EC50) in series [2] was 9.1 µM.

Compound `CS(=O)(=O)Nc1ccccc1Nc1c(O)cc2c(c1Br)C[C@@H]1NCC[C@]23CCCC[C@H]13` [Example 132, (+)-1-Bromo-3-hydroxy-2-(2-(methanesulfonamido)phenylamino)morphinan TFA salt] gave a CC50 at 24 h in series [1] of 10.6 µM. Further, the concentration for a half-maximal effect (EC50) in series [2] came to 0.237 µM.

The compound `Oc1cc2c(cc1Nc1cccc3cccnc13)C[C@@H]1NCC[C@]23CCCC[C@H]13` [Example 66, TFA salt] returned a cytotoxic concentration (CC50) at 24 h in series [1] of 2.9 µM. The EC50 in series [2] was 0.0213 µM.

As to `Oc1cc2c(cc1Nc1ccccc1N1CCCCC1)C[C@@H]1NCC[C@]23CCCC[C@H]13` [Example 128, (+)-3-Hydroxy-2-(2-(piperidin-1-yl)phenylamino)morphinan TFA salt], in series [1], the midpoint of cytotoxicity, the CC50 at 24 h, lay at 1.6 µM. The EC50 in series [2] amounted to 0.0356 µM.

In turn, `CN(C)c1ccccc1Nc1cc2c(cc1O)[C@]13CCCC[C@@H]1[C@H](C2)NCC3` [Example 126, (+)-2-(2-(Dimethylamino)phenylamino)-3-hydroxymorphinan TFA salt] registered a CC50 at 24 h in series [1] of 6.1 µM. The EC50 in series [2] is 0.0121 µM.

With `CCCCNC(=O)Nc1ccccc1Nc1cc2c(cc1O)[C@]13CCCC[C@@H]1[C@H](C2)NCC3` [Example 121, (+)-2-(2-(Butylureido)phenylamino)-3-hydroxymorphinan TFA salt], the 50% cytotoxic concentration (CC50) at 24 h in series [1] was 23.1 µM. The EC50 in series [2] was greater than 100 µM.

Turning to `Oc1cc2c(cc1N1CCCCCC1)C[C@@H]1NCC[C@]23CCCC[C@H]13` [Example 17, (+)-2-(Azepan-1-yl)-3-hydroxymorphinan TFA salt], in series [1], the cytotoxic concentration (CC50) at 24 h amounted to 12.2 µM. In series [2], the half-maximal effective concentration (EC50) is 0.579 µM.

As for `CS(=O)(=O)Nc1ccc(Nc2cc3c(cc2O)[C@]24CCCC[C@@H]2[C@H](C3)NCC4)cc1` [Example 114, (+)-3-Hydroxy-2-(4-(methanesulfonamido)phenylamino)morphinan TFA salt], in series [1], the midpoint of cytotoxicity, the CC50 at 24 h, lay at 11.4 µM. The concentration giving a half-maximal response (EC50) in series [2] came to 0.0329 µM.

In turn, `CN1CCN(c2cc3c(cc2O)[C@]24CCCC[C@@H]2[C@H](C3)NCC4)CC1` [Example 24, (+)-3-Hydroxy-2-(4-methylpiperazin-1-yl)morphinan 2TFA salt] came in with a CC50 at 24 h in series [1] of 14.4 µM. The 50% effective concentration (EC50) in series [2] stood at 3.1 µM.

For the compound `Oc1c(Br)cc2c(c1Br)[C@]13CCCC[C@@H]1[C@H](C2)NCC3` [Example 6, (+)-2,4-Dibromo-3-hydroxymorphinan TFA salt], the EC50 in series [2] worked out at 9.57 µM.

Turning to `Oc1c(F)cc2c(c1Br)[C@]13CCCC[C@@H]1[C@H](C2)NCC3` [Example 3, (+)-4-Bromo-2-fluoro-3-hydroxymorphinan TFA salt], the EC50 in series [2] was 19.8 µM.

In the case of `Cc1cc2c(cc1O)[C@]13CCCC[C@@H]1[C@H](C2)NCC3` [Example 85, (+)-3-Hydroxy-2-methylmorphinan TFA salt], in series [2], the EC50 came out at 8.39 µM.

Take `Oc1c(Cl)cc2c(c1Br)[C@]13CCCC[C@@H]1[C@H](C2)NCC3` [Example 8, (+)-4-Bromo-2-chloro-3-hydroxymorphinan TFA salt]: the half-maximal effective concentration (EC50) in series [2] worked out at 20.2 µM.

Consider `Oc1c(F)cc2c(c1Cl)[C@]13CCCC[C@@H]1[C@H](C2)NCC3` [Example 2, (+)-4-Chloro-2-fluoro-3-hydroxymorphinan TFA salt], for which the half-maximal effective concentration (EC50) in series [2] was found to be 50 µM.

With `CCCCOC(=O)Nc1ccccc1Nc1cc2c(cc1O)[C@]13CCCC[C@@H]1[C@H](C2)NCC3` [Example 118, (+)-2-(2-(Butoxycarbonylamino)phenylamino)-3-hydroxymorphinan TFA salt], in series [2], the concentration for a half-maximal effect (EC50) is 0.891 µM.

As to `CCc1cc2c(cc1O)[C@]13CCCC[C@@H]1[C@H](C2)NCC3` [Example 84, (+)-2-Ethyl-3-hydroxymorphinan TFA salt], the EC50 in series [2] amounted to 6.71 µM.

With `Oc1cc2c(cc1I)C[C@@H]1NCC[C@]23CCCC[C@H]13` [Example 9, (+)-3-Hydroxy-2-iodomorphinan TFA salt], the EC50 in series [2] worked out at 10.2 µM.

For `OCc1cc2c(cc1O)[C@]13CCCC[C@@H]1[C@H](C2)NCC3` [Example 16, (+)-3-Hydroxy-2-(hydroxymethyl)morphinan TFA salt], the EC50 in series [2] was greater than 100 µM.

On to `Oc1ccc2c(c1Cl)[C@]13CCCC[C@@H]1[C@H](C2)NCC3` [Example 5, (+)-4-Chloro-3-hydroxymorphinan TFA salt], for which, in series [2], the EC50 worked out at 9.33 µM.

For `O=C(O)c1cc2c(cc1O)[C@]13CCCC[C@@H]1[C@H](C2)NCC3` [Example 14, ((+)-3-Hydroxymorphinan)-2-carboxylic acid TFA salt], the concentration for a half-maximal effect (EC50) in series [2] was determined as 86.3 µM.

In the case of `Oc1cc2c(cc1O)[C@]13CCCC[C@@H]1[C@H](C2)NCC3` [Example 10, (+)-2,3-Dihydroxymorphinan TFA salt], the concentration giving a half-maximal response (EC50) in series [2] was 12.1 µM.

Consider `Oc1c(Cl)cc2c(c1Cl)[C@]13CCCC[C@@H]1[C@H](C2)NCC3` [Example 4, (+)-2,4-Dichloro-3-hydroxymorphinan TFA salt], for which the EC50 in series [2] was 10.9 µM.

Consider `CCCCNC(=S)Nc1ccccc1Nc1cc2c(cc1O)[C@]13CCCC[C@@H]1[C@H](C2)NCC3` [Example 123, (+)-2-(2-(Butylthioureido)phenylamino)-3-hydroxymorphinan TFA salt], for which the EC50 in series [2] worked out at 0.459 µM.

With `Oc1cc2c(cc1F)C[C@@H]1NCC[C@]23CCCC[C@H]13` [Example 1, (+)-2-Fluoro-3-hydroxymorphinan TFA salt], the half-maximal effective concentration (EC50) in series [2] turned out to be 9.68 µM.

As to `O=Cc1cc2c(cc1O)[C@]13CCCC[C@@H]1[C@H](C2)NCC3` [Example 13, (+)-2-Formyl-3-hydroxymorphinan TFA salt], in series [2], the EC50 was 11.6 µM.

For `Oc1cc2c(cc1-c1ccc(Cl)cc1)C[C@@H]1NCC[C@]23CCCC[C@H]13` [Example 74, (+)-2-(4-Chlorophenol)-3-hydroxymorphinan TFA salt], in series [2], the EC50 came to 0.796 µM.

In the case of `COc1cc2c(cc1O)[C@]13CCCC[C@@H]1[C@H](C2)NCC3` [Example 12, (+)-3-Hydroxy-2-methoxymorphinan TFA salt], the EC50 in series [2] worked out at 24.4 µM.
